From ChEMBL document CHEMBL1136639, “Synthesis and binding affinity of neuropeptide Y at opiate receptors” (Bioorg Med Chem Lett, 2003)
Calls of active or inactive are those of the source. The rule behind the calls is not given here. Starred links: 1 amine or outer side, 2 acyl side, 3 side chain; linkers in the order of their positions; H or OH if unused. Non-standard residues stand in square brackets, D forms with d. Residues, ends and D or L forms follow the SMILES beside them. X1 = NCCCC[C@H](C(=O)[C@H](CO)N[*:1])C(=O)[*:2]

Columns and labels:
[1] = molecular target: T1, Mu-type opioid receptor (Homo sapiens, UniProt P35372); assay: Binding affinity towards non-selective opiate receptor
[2] = molecular target: T1, Mu-type opioid receptor; assay: Inhibitory activity against non-selective opiate receptor
[3] = molecular target: T1, Mu-type opioid receptor; assay: Binding affinity towards non-selective opiate receptor; NA=Not active
[4] = molecular target: T1, Mu-type opioid receptor; assay: (§1) Inhibitory activity against non-selective opiate receptor; NA=Not active
[5] = molecular target: T1, Mu-type opioid receptor; assay: as §1; remark: listed apart in the source

T1 sequence (P35372 whole entry): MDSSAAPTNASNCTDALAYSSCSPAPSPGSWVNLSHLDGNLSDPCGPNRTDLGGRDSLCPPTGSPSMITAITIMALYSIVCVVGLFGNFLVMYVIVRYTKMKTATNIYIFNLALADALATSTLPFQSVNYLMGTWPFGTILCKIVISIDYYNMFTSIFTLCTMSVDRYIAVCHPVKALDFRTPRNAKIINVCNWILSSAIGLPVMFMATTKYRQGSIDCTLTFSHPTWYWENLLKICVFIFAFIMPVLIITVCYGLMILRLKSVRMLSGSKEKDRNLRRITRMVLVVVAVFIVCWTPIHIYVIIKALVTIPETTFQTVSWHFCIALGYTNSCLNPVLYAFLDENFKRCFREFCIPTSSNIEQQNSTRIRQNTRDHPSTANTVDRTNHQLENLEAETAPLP

Compound | Ki [1] [µM] | IC50 [2] [µM] | Ki [3] | IC50 [4] | NA [5]
CC[C@H](C)[C@H](NC(=O)[C@H](Cc1ccc(O)cc1)NC(=O)[C@H](Cc1c[nH]cn1)NC(=O)[C@H](CCCN=C(N)N)NC(=O)[C@H](CC(C)C)NC(=O)[C@H](C)NC(=O)[C@@H](N)CO)C(=O)N[C@@H](CC(N)=O)C(=O)N[C@@H](CC(C)C)C(=O)N[C@H](C(=O)N[C@H](C(=O)N[C@@H](CCCN=C(N)N)C(=O)N[C@@H](CCC(N)=O)C(=O)N[C@@H](CCCN=C(N)N)C(=O)N[C@@H](Cc1ccc(O)cc1)C(=O)O)[C@@H](C)O)[C@@H](C)CC | 5.1 | 10 |  |  | 
NCCCC[C@H](C(=O)[C@H](CO)NC(=O)[C@@H]1CCCN1C(=O)[C@@H](N)Cc1ccc(O)cc1)C(=O)N1CCC[C@H]1C(=O)N[C@@H](CC(=O)O)C(=O)O (H-YP[X1]PD-OH) | 1 | 1.8 |  |  | 
NCCCC[C@H](C(=O)[C@H](CO)NC(=O)[C@@H]1CCCN1C(=O)[C@@H](N)Cc1ccc(O)cc1)C(=O)N1CCC[C@H]1C(=O)N[C@@H](CC(=O)O)C(=O)N[C@@H](CC(N)=O)C(=O)N1CCC[C@H]1C(=O)O (H-YP[X1]PDNP-OH) |  |  | Not Active | Not Active | 
NC(=O)[C@@H]1CCCN1C(=O)[C@H](Cc1ccccc1)NC(=O)[C@@H]1CCCN1C(=O)[C@@H](N)Cc1ccc(O)cc1 [MORPHICEPTIN] (H-YPFP-NH2) | 0.15 | 0.32 |  |  | 
H-FPSKP-OH | 7.5 | 15 |  |  | 
H-INLITRQRY-OH |  |  | Not Active |  | inactive
